Source: the NIST ThermoML archive (doi:10.1016/j.jct.2018.12.002)
± gives the expanded uncertainty stated by the source.

Test: molar heat capacity at constant pressure
Conditions: 1943 K; 101.33 kPa; Liquid; Levitation methods

molar heat capacity at constant pressure: 44.9 ± 4.3 J/K/mol
SMILES: [Ti] [titanium]
